Measurements from patent US10485885B2, “Compositions and methods for delivery of agents” (ModernaTX, Inc., priority 2015, dated 2019).

System: circulating B cells and monocytes
Assay: B cell, B1a cell and monocyte frequencies and activation in non-human primate PBMCs
Assay type: in vivo, cynomolgus monkeys
Method: The percentage of monocyte activation was also measured at pre-bleed, day 1, day 22, day 43, and day 44 of the study.
FIGS. 84A and 84B show the EPO expression after the first injection and after the fifth injection. In particular, the concentration of EPO (ng/mL) was measured at 2 hours, 6 hours, 12 hours, 24 hours, and 48 hours following the first injection and the fifth injection. FIGS. 85A-85E show the EPO expression for each of the co-medications on day 1 and day 29 of the study. In particular, the concentration of EPO (ng/mL) was measured on day 1 and day 29 at 2 hours, 6 hours, 12 hours, 24 hours, and 48 hours for each co-medication group. Immune cell populations were also measured. Specifically, the percentage of B cells (FIG. 86A), B1a cells (FIG. 86B), and monocytes (FIG. 86C) in PBMCs was measured for each co-medication group at day-7, 24 hours post first injection, and 24 hours post fifth injection. B cell activation is reflected in FIG. 87. The percentage of activated B cells in circulating B cells was measured for each co-medication group at day-7, 24 hours post first injection, and 24 hours post fifth injection.
Monocyte activation is reflected in FIG. 88. The percentage of activated monocytes/macrophages in circulating PBMCs was measured for each co-medication group at day-7, 24 hours post first injection, and 24 hours post fifth injection. […] An increase in the percentage of activated monocytes/macrophages post injection was only observed in the fingolimod co-medication group.

[1] = co-medication with hEPO mRNA MC3-LNP, 24 hours post first injection

COc1cc(Nc2ncc(F)c(Nc3ccc4c(n3)N(COP(=O)(O)O)C(=O)C(C)(C)O4)n2)cc(OC)c1OC [fostamatinib]
Percentage of activated B cells in circulating B cells [1]: normal B cell activation similar to that of the control group

CCCCCCCCc1ccc(CCC(N)(CO)CO)cc1 [fingolimod]
Frequencies of monocytes in PBMCs (co-medication): significant decrease | Percentage of activated monocytes/macrophages post injection (co-medication): increase | Percentage of activated B cells in circulating B cells [1]: normal B cell activation similar to that of the control group

CC[C@H](Nc1ncnc2[nH]cnc12)c1nc2cccc(F)c2c(=O)n1-c1ccccc1 [idelalisib]
B cell frequencies in PBMCs (cynomolgus monkey, in vivo): slightly reduced | Percentage of activated B cells in circulating B cells (cynomolgus monkey, in vivo): B cell activation was not observed
